{"source": "patent US9937136B2", "about": "“Methods for treating radiation induced gastrointestinal tract injury” (RDD PHARMA LTD., priority 2013, dated 2018)", "test_system": "radiation induced gastrointestinal tract injury", "test": "Radiation-induced gastrointestinal tract injury in mice, mucosal alteration histological scoring", "type": "in vivo, male C57BL/6 mice", "settings": "enemas 75 mg/kg body weight for 9 days from day of irradiation; Cs-137 12 Gy to pelvic area; versus saline enemas", "description": "Fourteen male C57BL/6 mice were treated with enemas containing either 75 mg/kg body weight of Mesna or saline as a control for 9 days post-exposure to Cs-137 radiation (12 Gy) in the pelvic area. Radiation Injury Histological Scoring (0=no change, 3=severe change) was employed to assess treatment efficacy. The present invention is based in part on the unexpected finding that the rectal administration of Mesna to mice experiencing radiation induced gastrointestinal tract injury, reduces symptoms of the condition. In the present study, 14 male C57BL/6 mice were randomly divided into two groups—treatment group and control group. The pelvic area (containing the ano-rectal part of the intestine) of each mouse was exposed to a Cs-137 source and irradiated over 2 minutes at a rate of 6 Gy/min (a 12 Gy dose). Starting from the day of irradiation and for a period of 9 days, mice in the treatment group received enemas containing Mesna at a dose of 75 mg/kg body weight. Animals in the control group received saline enemas as a control. Animals were sacrificed nine days post irradiation and gross necropsy of the anus, rectum and colon was performed and documented by high resolution color pictures. […]"}
{"smiles": "O=S(=O)([O-])CCS.[Na+]", "note": "[Mesna, sodium 2-sulfanylethanesulfonate]", "values": [{"measurement": "mucosal alteration score (0=no change, 3=severe change)", "result": "significantly reduced"}]}
